Measured values taken from PubChem BioAssay (NCI).
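Tested at 5 concentrations; 48 h exposure; 96-well plates; endpoints linearly interpolated, else capped at highest concentration. TGI is the concentration that stops growth completely.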

What was measured:
Test in all cases: NCI-60 cell line screen, 48 h
EKVX NSCLC = tested on: EKVX NSCLC
NCI-H522 lung = tested on: NCI-H522 lung
SK-MEL-28 melanoma = tested on: SK-MEL-28 melanoma
ACHN renal = tested on: ACHN renal
PC-3 prostate = tested on: PC-3 prostate
A498 renal = tested on: A498 renal
OVCAR-8 ovarian = tested on: OVCAR-8 ovarian
MDA-MB-231 breast = tested on: MDA-MB-231 breast
BT-549 breast = tested on: BT-549 breast
HL-60(TB) leukemia = tested on: HL-60(TB) leukemia
HOP-62 NSCLC = tested on: HOP-62 NSCLC

Row | Compound | TGI (EKVX NSCLC) [µM] | TGI (NCI-H522 lung) [µM] | TGI (SK-MEL-28 melanoma) [µM] | TGI (ACHN renal) [µM] | TGI (PC-3 prostate) [µM] | TGI (A498 renal) [µM] | TGI (OVCAR-8 ovarian) [µM] | TGI (MDA-MB-231 breast) [µM] | TGI (BT-549 breast) [µM] | TGI (HL-60(TB) leukemia) [µM] | TGI (HOP-62 NSCLC) [µM]
1 | CCOC1OC(CO)C(O)CC1n1ccc(=O)[nH]c1=O (configuration not stated) | > 100 | > 100 | > 100 | > 100 | > 100 | > 100 | > 100 | > 100 | > 100 | – | –
2 | CC1(C)OP(=O)(c2ccccc2)C=C1Sc1ccc([N+](=O)[O-])cc1[N+](=O)[O-] (configuration not stated) | > 100 | 36.6 | > 100 | > 100 | > 100 | > 100 | > 100 | – | – | 37.4 | > 100
3 | COc1ccccc1NC(=O)C1=C(C)NC(C)=C(C(=O)Nc2ccccc2OC)C1c1ccccc1[N+](=O)[O-] | > 100 | 26.8 | 33.9 | 37.5 | – | – | 40.5 | – | – | 45.3 | 88.2
4 | COc1ccc2[nH]c3c(c2c1)[C@H](c1ccccc1)C[C@@H]1C(=O)N(c2ccccc2)C(=O)[C@H]31 | > 100 | > 100 | > 100 | 42.9 | – | 49.6 | 17.6 | – | – | – | 48.8
5 | Cc1ccc(C(=O)CC2(O)C(=O)Nc3c(C)cc(Cl)cc32)cc1 (configuration not stated) | > 100 | > 100 | > 100 | > 100 | – | – | > 100 | – | – | > 100 | > 100
6 | CC1=CC2C(C=C1)S(=O)(=O)N1CC21c1ccccc1 (configuration not stated) | – | > 100 | > 100 | > 100 | – | > 100 | > 100 | – | – | > 100 | > 100
7 | CSc1ncnc2c1cnn2Cc1cn(COCCO)nn1 | – | – | > 100 | > 100 | > 100 | > 100 | – | > 100 | > 100 | > 100 | > 100
8 | CNC(=O)c1n[nH]n(C2CCCCC2)c1=S | > 100 | > 100 | > 100 | > 100 | > 100 | > 100 | > 100 | > 100 | – | > 100 | > 100
9 | COc1ccc(/C=c2\c(=O)[nH]c3nc4ccccc4c(=O)n23)cc1 | > 100 | > 100 | > 100 | > 100 | > 100 | – | > 100 | > 100 | > 100 | > 100 | > 100
10 | O=C/C(=C1/C=Cc2cc([N+](=O)[O-])ccc2S1)c1ccccc1 | > 100 | > 100 | > 100 | > 100 | > 100 | > 100 | – | > 100 | – | > 100 | > 100
11 | N#CC(NNC(=O)Cc1ccccc1)c1cccc(O)c1 (configuration not stated) | – | > 100 | > 100 | > 100 | – | – | > 100 | – | – | > 100 | > 100
12 | CCOC(=O)c1c2ccc(/C=C/c3ccccn3)ccc-2c(C(=O)OCC)c1N | > 100 | > 100 | 1.49 | > 100 | – | > 100 | – | – | – | > 100 | –
13 | O=Cc1c[nH]c2c(=O)[nH]cnc12 | > 100 | > 100 | > 100 | > 100 | – | – | > 100 | – | – | > 100 | > 100
14 | Cc1cc2ncn(-c3nc4ccccc4nc3C(C#N)S(C)(=O)=O)c2cc1C (configuration not stated) | > 100 | > 100 | > 100 | > 100 | – | > 100 | > 100 | – | – | > 100 | > 100
15 | Nc1nc2c(N)cc(C(F)(F)F)cc2nc1-c1ccccc1 | > 100 | > 100 | > 100 | > 100 | – | > 100 | > 100 | – | – | > 100 | > 100
16 | O=c1[nH]nc(Cc2ccccc2)n1/N=C/c1cccs1 | > 100 | – | > 100 | > 100 | > 100 | 63 | > 100 | > 100 | > 100 | – | > 100
17 | CC(=O)OI1NC(=O)c2ccccc21 | > 100 | > 100 | > 100 | > 100 | > 100 | > 100 | > 100 | > 100 | – | > 100 | > 100
18 | COC(=O)c1ccc2c(c1)CC1(C2)Cc2cc3c(cc2C1)CCC3 | > 100 | > 100 | > 100 | > 100 | > 100 | > 100 | > 100 | > 100 | – | > 100 | > 100
19 | O=C1CN(c2ccccc2)Cc2nc(Cl)ccc2N1 | > 100 | > 100 | > 100 | > 100 | > 100 | – | > 100 | > 100 | > 100 | > 100 | > 100
20 | O=C1N=C2SC=C(NC(=S)Nc3ccccc3)N2NC12c1ccccc1-c1ccccc12 | > 10 | > 10 | > 10 | > 10 | > 10 | – | > 10 | > 10 | > 10 | > 10 | > 10
21 | O=[N+]([O-])c1ccc(SN=S=NSc2cccc(SN=S=NSc3ccc([N+](=O)[O-])cc3)c2)cc1 | > 100 | 34.3 | > 100 | > 100 | 40.1 | > 100 | 53.4 | – | 40.6 | 83.7 | > 100
22 | O=C(Cc1ccccc1)NN1C(=O)C(Cl)C1c1ccccc1Cl (configuration not stated) | > 100 | 28 | > 100 | > 100 | – | > 100 | > 100 | – | – | > 100 | > 100
23 | C=CCCC1(O)C(O)C(CO)O[C@H](O[C@@]2(CO)OC(CO)C(O)C2O)C1O (some centres not stated) | > 100 | > 100 | > 100 | > 100 | > 100 | – | > 100 | > 100 | > 100 | > 100 | > 100
24 | CCS(=O)C(=O)N(O)c1ccc(Cl)cc1 (configuration not stated) | > 100 | – | 35.6 | 55 | > 100 | > 100 | – | > 100 | – | – | > 100
